We go through 12 compounds from patent publication US20230203008A1, “3-AZABICYCLOALKYL DERIVATIVE AND PHARMACEUTICAL COMPOSITION CONTAINING SAME” (LG CHEM, LTD., priority 2020, published 2023).

Some results are limits rather than exact numbers.

In this experiment the target is T1, KHK (Homo sapiens, UniProt P50053).
T1 construct: His tag; made in house; host or cells: E. coli
T1 sequence (P50053 1-298): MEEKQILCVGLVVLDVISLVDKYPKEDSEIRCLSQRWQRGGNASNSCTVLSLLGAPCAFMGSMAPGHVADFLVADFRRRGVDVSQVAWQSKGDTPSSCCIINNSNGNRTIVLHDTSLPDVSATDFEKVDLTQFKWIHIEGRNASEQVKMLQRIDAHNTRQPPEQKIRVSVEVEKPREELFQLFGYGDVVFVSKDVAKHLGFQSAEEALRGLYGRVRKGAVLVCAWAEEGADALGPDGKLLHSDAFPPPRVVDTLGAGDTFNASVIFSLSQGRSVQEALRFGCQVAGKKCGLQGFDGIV
The experiment can be described thus: Measurement of in vitro activity of KHK inhibitor (Transcreener ADP2 TR-FRET Red Assay). As to conditions: purified His-tagged KHK expressed in E. coli; 30 min preincubation with inhibitor, 15 min substrate reaction; Morrison equation. The format is biochemical. On the procedure:
KHK was expressed in E. coli, and purified using a His tag. To measure the activity of the purified KHK, a Transcreener ADP2 TR-FRET Red Assay kit of BellBrook Labs was used. The Transcreener ADP2 TR-FRET Red Assay kit is a method of measuring an amount of generated ADP using TR-FRET after proper concentrations of KHK and ATP, and a fructose-containing solution were reacted for 15 minutes. To measure the activity of a KHK inhibitor, KHK and a proper concentration of an inhibitor were first reacted for 30 minutes, and reacted with a solution containing a KHK substrate for 15 minutes. In addition, after the TR-FRET reaction for 1 hour, fluorescence was measured using an Envision apparatus of PerkinElmer. A setting value of the Envision apparatus was determined according to the TR-FRET optimization procedures published by BellBrook Labs.
The resulting value for each concentration of the KHK inhibitor is determined a ratio of a 665-nm wavelength and a 615-nm wavelength. Here, the 665/615 ratio was converted to an ADP concentration based on an ADP standard curve, and the inhibitory activity, a Ki value, was obtained using the Morrison equation in statistical software (Prizm).
`C[C@H]1CCN1c1nc(N2C[C@H]3C[C@@H](C2)[C@@H]3CC(=O)O)c2c(c1C#N)CCC2` [Example 1, 2-((1R,5S,6S)-3-(4-cyano-3-((S)-2-methylazetidin-1-yl)-6,7-dihydro-5H-cyclopenta[c]pyridin-1-yl)-3-azabicyclo[3.1.1]heptan-6-yl)acetic acid] had a Ki of at most 100 nM.

`C[C@H]1CCN1c1nc(N2C[C@H]3C[C@@H](C2)[C@@H]3CC(=O)O)c2c(c1C#N)CCCC2` [Example 2, 2-((1R,5S,6S)-3-(4-cyano-3-((S)-2-methylazetidin-1-yl)-5,6,7,8-tetrahydroisoquinolin-1-yl)-3-azabicyclo[3.1.1]heptan-6-yl)acetic acid] registered a Ki of at most 100 nM. To `C[C@H]1CCN1c1nc(N2CC3CC(C2)C3CC(=O)O)c2c(c1C#N)CCCCC2` (stereo partly drawn) [Example 3, 2-(3-(4-cyano-3-((S)-2-methylazetidin-1-yl)-6,7,8,9-tetrahydro-5H-cyclohepta[c]pyridin-1-yl)-3-azabicyclo[3.1.1]heptan-6-yl)acetic acid] belongs at most 100 nM. The value for `C[C@H]1CCN1c1nc(N2C[C@H]3C[C@@H](C2)[C@@H]3CC(=O)O)c2c(c1C#N)CCOC2` [Example 4, 2-((1R,5S,6S)-3-(5-cyano-6-((S)-2-methylazetidin-1-yl)-3,4-dihydro-1H-pyrano[3,4-c]pyridin-8-yl)-3-azabicyclo[3.1.1]heptan-6-yl)acetic acid] was at most 100 nM; that for `C[C@H]1CCN1c1nc(N2CC3CC(C2)C3CC(=O)O)c2c(n1)C(C)(C)OC2` (stereo partly drawn) [Example 5, 2-(3-(7,7-dimethyl-2-((S)-2-methylazetidin-1-yl)-5,7-dihydrofuro[3,4-d]pyrimidin-4-yl)-3-azabicyclo[3.1.1]heptan-6-yl)acetic acid] was 100 to 1000 nM.

`C[C@@H]1OCc2c1nc(N1CC[C@@H]1C)nc2N1C[C@H]2C[C@@H](C1)[C@@H]2CC(=O)O` [Example 6, 2-((1R,5S,6S)-3-((S)-7-methyl-2-((S)-2-methylazetidin-1-yl)-5,7-dihydrofuro [3,4-d]pyrimidin-4-yl)-3-azabicyclo[3.1.1]heptan-6-yl)acetic acid] yielded a Ki of 100 to 1000 nM. The value for `C[C@@H]1OCc2c1nc(N1CC[C@@H]1C)nc2N1C[C@@H]2[C@@H](CC(=O)O)[C@@H]2C1` [Example 7, 2-((1R,5S,6S)-3-((S)-7-methyl-2-((S)-2-methylazetidin-1-yl)-5,7-dihydrofuro[3,4-d]pyrimidin-4-yl)-3-azabicyclo[3.1.0]hexan-6-yl)acetic acid] was 100 to 1000 nM; that for `C[C@H]1CCN1c1nc(N2C[C@H]3C[C@@H](C2)[C@@H]3CC(=O)O)c2c(n1)C(F)(F)CC2` [Example 8, 2-((1R,5S,6S)-3-(7,7-difluoro-2-((S)-2-methylazetidin-1-yl)-6,7-dihydro-5H-cyclopenta[d]pyrimidin-4-yl)-3-azabicyclo[3.1.1]heptan-6-yl)acetic acid] was at most 100 nM; that for `C[C@H]1CCN1c1nc(N2C[C@@H]3[C@@H](CC(=O)O)[C@@H]3C2)c2c(n1)C(F)(F)CC2` [Example 9, 2-((1R,5S,6S)-3-(7,7-difluoro-2-((S)-2-methylazetidin-1-yl)-6,7-dihydro-5H-cyclopenta[d]pyrimidin-4-yl)-3-azabicyclo[3.1.0]hexan-6-yl)acetic acid] was at most 100 nM.

Consider `C[C@H]1CCN1c1nc(N2C[C@H]3C[C@@H](C2)[C@@H]3CC(=O)O)c2c(n1)C(F)(F)CCC2` [Example 10, 2-((1R,5S,6S)-3-(8,8-difluoro-2-((S)-2-methylazetidin-1-yl)-5,6,7,8-tetrahydroquinazolin-4-yl)-3-azabicyclo[3.1.1]heptan-6-yl)acetic acid], for which the Ki was at most 100 nM.

`C[C@H]1CCN1c1nc(N2C[C@@H]3[C@@H](CC(=O)O)[C@@H]3C2)c2c(n1)C(F)(F)CCC2` [Example 11, 2-((1R,5S,6S)-3-(8,8-difluoro-2-((S)-2-methylazetidin-1-yl)-5,6,7,8-tetrahydroquinazolin-4-yl)-3-azabicyclo[3.1.0]hexan-6-yl)acetic acid] came in with a Ki of at most 100 nM.

With `O=C(O)C[C@@H]1[C@H]2CN(c3nc(N4CCCC4)nc4c3CCCC4(F)F)C[C@@H]12` [Example 12, 2-((1R,5S,6S)-3-(8,8-difluoro-2-(pyrrolidin-1-yl)-5,6,7,8-tetrahydroquinazolin-4-yl)-3-azabicyclo[3.1.0]hexan-6-yl)acetic acid], the Ki is 100 to 1000 nM.
